Molecules are shown by their SMILES. Calls of active or inactive are those of the source.

Assay [1] has as its system Streptococcus sp. 'group A'. The experiment in a line: growth inhibition of control SK(-) GAS strain, dose response, counter-screen for streptokinase expression inhibitor project, luminescence, kanamycin, BacTiterGlo, confirmation (AID 1900). The assay is classed as functional, organism-based. In general terms: A counterscreen serves to expose hits that act by an unwanted route or on another target.

The nature of assay [2]: growth suppression of PTEN-null colon cells, dose response, cell-based, HCT116 PTEN knockout (AID 1047).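 Note: HCT116 colon tumor cells with PTEN knocked out; cells exposed to compound for 60 hours before readout; potency for loss of cell viability measured by luminescence.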 The assay is classed as functional.
The nature of assay [3]: cells. The format is functional.
Assay [4] concerns the target Tyrosine-protein kinase JAK2 (Homo sapiens, UniProt O60674). The assay is classed as functional.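 Note: JAK2 tested as one member of a kinase panel.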
Assay [5] addresses T1, Serine/threonine-protein kinase D3 (Homo sapiens, UniProt O94806).
T1 sequence (O94806 whole entry): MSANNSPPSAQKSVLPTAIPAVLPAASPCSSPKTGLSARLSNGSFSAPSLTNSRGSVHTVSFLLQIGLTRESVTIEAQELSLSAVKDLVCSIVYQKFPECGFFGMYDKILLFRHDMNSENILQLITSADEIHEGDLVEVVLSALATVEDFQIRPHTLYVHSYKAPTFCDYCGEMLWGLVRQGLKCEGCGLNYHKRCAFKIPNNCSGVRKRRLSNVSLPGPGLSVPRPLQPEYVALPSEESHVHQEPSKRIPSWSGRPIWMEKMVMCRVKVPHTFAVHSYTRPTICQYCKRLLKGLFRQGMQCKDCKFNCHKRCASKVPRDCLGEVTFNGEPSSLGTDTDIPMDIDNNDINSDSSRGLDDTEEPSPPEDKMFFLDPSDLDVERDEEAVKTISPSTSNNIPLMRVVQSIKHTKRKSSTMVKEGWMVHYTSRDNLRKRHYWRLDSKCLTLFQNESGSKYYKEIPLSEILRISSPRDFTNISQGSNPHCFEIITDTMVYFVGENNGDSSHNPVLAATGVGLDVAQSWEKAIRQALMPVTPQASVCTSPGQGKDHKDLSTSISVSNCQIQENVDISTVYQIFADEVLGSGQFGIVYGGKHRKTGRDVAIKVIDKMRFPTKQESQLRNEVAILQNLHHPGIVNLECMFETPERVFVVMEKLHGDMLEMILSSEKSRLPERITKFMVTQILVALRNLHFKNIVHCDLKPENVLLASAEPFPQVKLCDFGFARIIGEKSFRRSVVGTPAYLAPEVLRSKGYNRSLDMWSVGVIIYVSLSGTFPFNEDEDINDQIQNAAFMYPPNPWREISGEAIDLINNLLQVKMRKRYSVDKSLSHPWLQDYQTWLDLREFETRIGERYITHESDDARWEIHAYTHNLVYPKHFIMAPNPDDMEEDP
The format is functional.

Assay [6] deals with Tyrosine-protein kinase Lck (Homo sapiens, UniProt P06239). The assay is classed as functional.
Chain of Tyrosine-protein kinase Lck (P06239 whole entry): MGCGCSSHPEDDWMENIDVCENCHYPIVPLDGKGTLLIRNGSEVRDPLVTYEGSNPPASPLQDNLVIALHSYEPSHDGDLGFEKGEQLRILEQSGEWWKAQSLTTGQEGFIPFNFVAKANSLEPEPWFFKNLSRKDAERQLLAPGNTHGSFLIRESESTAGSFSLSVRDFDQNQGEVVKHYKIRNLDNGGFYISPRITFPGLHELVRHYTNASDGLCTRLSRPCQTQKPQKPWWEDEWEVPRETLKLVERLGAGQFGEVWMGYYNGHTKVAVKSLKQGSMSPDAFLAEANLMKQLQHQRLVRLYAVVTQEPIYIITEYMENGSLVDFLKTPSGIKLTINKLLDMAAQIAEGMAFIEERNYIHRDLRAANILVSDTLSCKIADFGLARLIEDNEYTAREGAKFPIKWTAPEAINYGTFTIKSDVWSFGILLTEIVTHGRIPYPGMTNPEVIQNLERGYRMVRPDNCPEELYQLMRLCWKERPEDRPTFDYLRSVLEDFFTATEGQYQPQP
Assay [7] deals with Death-associated protein kinase 3 (Homo sapiens, UniProt O43293). The format is functional.
Chain of Death-associated protein kinase 3 (O43293 whole entry): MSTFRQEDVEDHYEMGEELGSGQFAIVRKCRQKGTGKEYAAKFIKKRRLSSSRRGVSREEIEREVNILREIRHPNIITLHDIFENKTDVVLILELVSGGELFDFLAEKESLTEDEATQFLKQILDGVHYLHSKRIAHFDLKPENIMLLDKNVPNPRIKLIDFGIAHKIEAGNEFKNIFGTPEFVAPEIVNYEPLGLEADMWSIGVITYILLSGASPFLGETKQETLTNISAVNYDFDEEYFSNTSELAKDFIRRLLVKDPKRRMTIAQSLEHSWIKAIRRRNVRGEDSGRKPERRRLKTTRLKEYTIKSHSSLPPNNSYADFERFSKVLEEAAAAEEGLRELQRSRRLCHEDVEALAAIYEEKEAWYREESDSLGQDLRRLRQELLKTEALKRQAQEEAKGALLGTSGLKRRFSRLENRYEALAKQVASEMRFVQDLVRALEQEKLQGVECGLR
Assay [8] has as its target Mitogen-activated protein kinase 9 (Homo sapiens, UniProt P45984). The format is functional.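 Note: value from a kinome panel profiling assay, MAPK9 panel entry.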
The target in assay [9] is Serine/threonine-protein kinase TAO1 (Homo sapiens, UniProt Q7L7X3). The assay is classed as functional.
Chain of Serine/threonine-protein kinase TAO1 (Q7L7X3 whole entry): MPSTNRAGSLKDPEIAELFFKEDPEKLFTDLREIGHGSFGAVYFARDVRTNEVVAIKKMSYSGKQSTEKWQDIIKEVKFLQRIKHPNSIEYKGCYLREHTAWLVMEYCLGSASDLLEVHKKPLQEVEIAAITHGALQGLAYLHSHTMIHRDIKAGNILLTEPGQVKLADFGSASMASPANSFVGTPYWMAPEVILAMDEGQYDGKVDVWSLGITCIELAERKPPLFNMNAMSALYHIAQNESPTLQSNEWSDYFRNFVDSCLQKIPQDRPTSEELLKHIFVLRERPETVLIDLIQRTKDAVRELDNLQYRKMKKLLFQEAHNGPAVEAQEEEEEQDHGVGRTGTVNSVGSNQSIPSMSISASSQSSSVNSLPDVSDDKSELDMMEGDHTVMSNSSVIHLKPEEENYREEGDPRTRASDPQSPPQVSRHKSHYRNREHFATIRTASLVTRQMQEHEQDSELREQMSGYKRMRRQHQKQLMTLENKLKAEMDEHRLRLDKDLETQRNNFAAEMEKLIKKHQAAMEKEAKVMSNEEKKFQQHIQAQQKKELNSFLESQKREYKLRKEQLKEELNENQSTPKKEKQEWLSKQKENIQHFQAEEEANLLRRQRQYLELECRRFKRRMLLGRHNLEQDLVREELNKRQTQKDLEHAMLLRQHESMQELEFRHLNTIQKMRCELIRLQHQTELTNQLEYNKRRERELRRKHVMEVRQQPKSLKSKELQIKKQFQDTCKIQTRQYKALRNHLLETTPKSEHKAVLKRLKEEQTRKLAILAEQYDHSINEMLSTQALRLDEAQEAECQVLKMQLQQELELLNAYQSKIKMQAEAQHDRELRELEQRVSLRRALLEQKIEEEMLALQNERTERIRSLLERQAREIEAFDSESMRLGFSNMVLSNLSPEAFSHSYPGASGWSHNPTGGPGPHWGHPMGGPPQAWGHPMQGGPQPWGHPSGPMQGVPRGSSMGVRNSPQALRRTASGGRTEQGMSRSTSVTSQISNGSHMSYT
The target in assay [10] is T2, cAMP-dependent protein kinase catalytic subunit PRKX (Homo sapiens, UniProt P51817).
T2 sequence (P51817 whole entry): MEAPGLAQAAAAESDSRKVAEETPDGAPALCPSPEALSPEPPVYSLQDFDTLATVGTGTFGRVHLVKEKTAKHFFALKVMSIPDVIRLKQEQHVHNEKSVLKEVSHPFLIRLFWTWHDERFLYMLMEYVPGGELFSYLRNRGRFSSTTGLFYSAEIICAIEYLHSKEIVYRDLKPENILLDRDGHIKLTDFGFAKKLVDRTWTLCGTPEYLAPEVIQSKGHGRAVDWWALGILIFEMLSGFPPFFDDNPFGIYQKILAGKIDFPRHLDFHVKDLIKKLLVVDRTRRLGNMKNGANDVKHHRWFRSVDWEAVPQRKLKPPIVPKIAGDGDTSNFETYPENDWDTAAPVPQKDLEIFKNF
The assay is classed as functional.

The target in assay [11] is Rho-associated protein kinase 1 (Homo sapiens, UniProt Q13464). The assay is classed as functional.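 Note: measured within a broad kinome-wide panel profiling many kinases.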
Chain of Rho-associated protein kinase 1 (Q13464 whole entry): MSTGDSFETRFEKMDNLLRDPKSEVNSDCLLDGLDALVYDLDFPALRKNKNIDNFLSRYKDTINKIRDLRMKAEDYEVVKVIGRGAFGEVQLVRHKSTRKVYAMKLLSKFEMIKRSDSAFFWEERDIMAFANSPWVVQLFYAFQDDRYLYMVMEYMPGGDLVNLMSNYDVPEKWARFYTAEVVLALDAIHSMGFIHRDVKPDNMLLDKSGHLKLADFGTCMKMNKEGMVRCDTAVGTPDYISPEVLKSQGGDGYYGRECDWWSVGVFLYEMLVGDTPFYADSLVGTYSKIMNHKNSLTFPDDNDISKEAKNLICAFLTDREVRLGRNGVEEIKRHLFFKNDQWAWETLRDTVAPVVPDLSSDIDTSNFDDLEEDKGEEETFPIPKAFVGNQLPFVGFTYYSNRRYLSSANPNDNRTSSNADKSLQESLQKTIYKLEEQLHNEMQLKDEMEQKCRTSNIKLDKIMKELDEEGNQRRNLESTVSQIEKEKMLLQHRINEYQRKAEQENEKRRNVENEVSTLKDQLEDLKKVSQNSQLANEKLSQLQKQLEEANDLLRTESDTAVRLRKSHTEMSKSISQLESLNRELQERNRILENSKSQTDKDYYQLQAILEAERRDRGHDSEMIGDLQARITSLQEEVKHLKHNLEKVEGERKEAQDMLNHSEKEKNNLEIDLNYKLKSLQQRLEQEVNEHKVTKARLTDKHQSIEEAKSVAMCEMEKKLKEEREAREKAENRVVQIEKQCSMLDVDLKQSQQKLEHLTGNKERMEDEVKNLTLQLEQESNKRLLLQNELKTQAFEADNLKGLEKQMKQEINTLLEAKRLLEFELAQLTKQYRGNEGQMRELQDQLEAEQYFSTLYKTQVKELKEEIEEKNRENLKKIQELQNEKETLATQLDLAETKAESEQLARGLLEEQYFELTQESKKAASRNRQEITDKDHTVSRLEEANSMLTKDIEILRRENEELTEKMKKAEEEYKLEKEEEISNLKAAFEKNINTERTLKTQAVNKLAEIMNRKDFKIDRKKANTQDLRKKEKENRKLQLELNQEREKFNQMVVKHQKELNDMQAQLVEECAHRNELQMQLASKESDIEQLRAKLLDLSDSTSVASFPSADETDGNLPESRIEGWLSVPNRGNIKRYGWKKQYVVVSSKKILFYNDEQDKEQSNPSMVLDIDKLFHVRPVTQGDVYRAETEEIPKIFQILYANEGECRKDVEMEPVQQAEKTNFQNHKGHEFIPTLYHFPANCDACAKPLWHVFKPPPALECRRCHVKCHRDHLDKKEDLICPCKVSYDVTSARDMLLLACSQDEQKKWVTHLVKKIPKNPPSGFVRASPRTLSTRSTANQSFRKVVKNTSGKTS
For assay [12], the target named is Vascular endothelial growth factor receptor 1 (Homo sapiens, UniProt P17948). The format is functional.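 Note: measured within a kinome-wide profiling panel, FLT1 as the panel member.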
The target in assay [13] is Macrophage-stimulating protein receptor (Homo sapiens, UniProt Q04912). The experiment in a line: Navigating the Kinome. Panel member name: MST1R. The format is functional.
Assay [14] concerns the target Dual specificity tyrosine-phosphorylation-regulated kinase 1A (Homo sapiens, UniProt Q13627). The format is functional.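 Note: measured against DYRK1A as one member of a broad kinome profiling panel.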

Chain of Mitogen-activated protein kinase 9 (P45984 whole entry): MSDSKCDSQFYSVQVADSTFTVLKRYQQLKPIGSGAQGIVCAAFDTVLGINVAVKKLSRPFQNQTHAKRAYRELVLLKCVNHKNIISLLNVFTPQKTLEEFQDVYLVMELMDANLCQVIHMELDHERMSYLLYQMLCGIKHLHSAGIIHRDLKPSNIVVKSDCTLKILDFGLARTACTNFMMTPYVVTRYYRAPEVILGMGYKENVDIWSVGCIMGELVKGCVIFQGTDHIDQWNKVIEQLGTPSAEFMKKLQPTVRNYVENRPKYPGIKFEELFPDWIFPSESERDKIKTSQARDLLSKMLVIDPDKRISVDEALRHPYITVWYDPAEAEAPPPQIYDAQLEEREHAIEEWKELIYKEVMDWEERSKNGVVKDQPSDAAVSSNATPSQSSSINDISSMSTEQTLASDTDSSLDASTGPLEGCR
Chain of Tyrosine-protein kinase JAK2 (O60674 whole entry): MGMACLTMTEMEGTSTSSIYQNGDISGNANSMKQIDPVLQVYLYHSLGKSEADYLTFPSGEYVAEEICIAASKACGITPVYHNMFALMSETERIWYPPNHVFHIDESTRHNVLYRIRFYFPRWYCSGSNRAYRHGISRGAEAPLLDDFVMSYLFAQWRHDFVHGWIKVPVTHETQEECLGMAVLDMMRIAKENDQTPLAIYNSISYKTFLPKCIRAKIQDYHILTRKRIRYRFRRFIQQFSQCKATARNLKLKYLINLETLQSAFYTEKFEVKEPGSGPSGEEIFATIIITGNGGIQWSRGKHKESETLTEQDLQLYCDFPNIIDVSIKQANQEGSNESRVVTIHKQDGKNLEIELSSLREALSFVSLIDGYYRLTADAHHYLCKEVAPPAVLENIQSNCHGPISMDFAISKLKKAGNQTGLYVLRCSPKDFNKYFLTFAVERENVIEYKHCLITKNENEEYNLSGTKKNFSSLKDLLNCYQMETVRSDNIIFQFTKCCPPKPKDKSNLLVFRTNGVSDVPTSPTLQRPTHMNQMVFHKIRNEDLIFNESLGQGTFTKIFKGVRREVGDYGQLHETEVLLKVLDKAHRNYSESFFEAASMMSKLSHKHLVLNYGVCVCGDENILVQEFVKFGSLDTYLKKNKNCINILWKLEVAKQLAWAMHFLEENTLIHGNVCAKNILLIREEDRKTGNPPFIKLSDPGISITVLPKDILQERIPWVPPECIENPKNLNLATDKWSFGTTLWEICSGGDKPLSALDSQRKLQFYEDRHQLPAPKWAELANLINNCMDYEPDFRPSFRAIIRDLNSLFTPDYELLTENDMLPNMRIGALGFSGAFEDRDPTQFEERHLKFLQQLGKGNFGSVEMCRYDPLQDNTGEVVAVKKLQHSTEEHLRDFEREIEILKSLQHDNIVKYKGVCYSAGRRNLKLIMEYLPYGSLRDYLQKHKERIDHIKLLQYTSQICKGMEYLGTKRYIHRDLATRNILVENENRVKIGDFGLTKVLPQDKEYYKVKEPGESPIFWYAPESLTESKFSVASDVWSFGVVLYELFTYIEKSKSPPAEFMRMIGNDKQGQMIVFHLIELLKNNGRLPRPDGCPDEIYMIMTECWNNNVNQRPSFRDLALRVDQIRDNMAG

In the case of `CCOC(=O)c1ccc(NC2=CC(=O)C(=O)c3ccccc32)cc1`, the results for the EC50 in assay [1] and in [2] were 2.3 µM (active) and 15.5 µM (active), respectively. In assay [3], the IC50 (as a rule, the concentration that gives 50% inhibition) is 19.2 µM (active).

For `OC(CNCCC1C=Nc2ccccc21)Cn1c2ccc(Cl)cc2c2cc(Cl)ccc21` (configuration not stated), in [2], the EC50 (commonly the concentration giving half of the maximal effect) was 2.73 µM (active).

With `CCCCCCCCCCCCCCCC[N+](C)(C)C`, in assay [1], the EC50 is 2.06 µM (active).

Turning to `NC1CCC(Nc2nc(Cl)cc(-c3c[nH]c4ncccc34)n2)CC1` (configuration not stated), the Ki (as a rule, the dissociation constant of the complex between target and ligand, obtained from inhibition or displacement) in [4] was 0.794 µM (active); in [5], 0.00501 µM (active); in assay [6], 3.16 µM (active); in [7], 0.0501 µM (active); in assay [8] it was 3.16 µM (active); in assay [9], > 6.31 µM (inactive). Moreover, the Ki in assay [10] is 0.00316 µM (active); in assay [11], 0.00126 µM (active); in assay [12] it was > 3.98 µM (inactive); in assay [13], 0.0631 µM (active); in [14], 0.0251 µM (active). Further, the pKi (usually the Ki on a negative log10 scale, so that one unit is a factor of ten) in assay [4] was 6.1; in assay [5], 8.3; in assay [6], 5.5; in assay [7], 7.3; in assay [8], 5.5; in assay [10], 8.5. In addition, the pKi in [11] was 8.9; in [13], 7.2; in [14] it was 7.6.

As for `O=C(O)C1CN(Cc2ccc(OCc3ccccc3)cc2Cl)C1`, the Ki in [4] is > 2.51 µM (inactive); in assay [5] it was > 3.98 µM (inactive); in [6], > 6.31 µM (inactive); in [7], > 5.01 µM (inactive); in assay [8], > 3.98 µM (inactive); in assay [9], > 6.31 µM (inactive). Also, the Ki is 1.26 µM (active) in [10]; > 3.98 µM (inactive) in assay [11]; > 3.98 µM (inactive) in [12]; > 3.98 µM (inactive) in assay [13]; > 2 µM (inactive) in assay [14].

Regarding `Cc1ccccc1-c1cc2c(nn1)-c1ccccc1C2=O`, the IC50 in [3] was 14.7 µM (active).

The record behind these values is ChEMBL document CHEMBL1201862, “PubChem BioAssay data set” (2004).
